Experimental data taken from patent publication EP3681856B1, “COMPOUNDS HAVING PRESERVATIVE, ANTIMICROBIAL AND ANTISEPTIC ACTIVITY” (Universita' degli Studi di Milano, priority 2017, dated 2019).

How the values were obtained:
Type in all cases: cell-based
E. coli = test: MIC evaluation, broth microdilution method (CLSI); details: Escherichia coli, 37°C
Description: (§1) Tests were then effected on the two bacteria analysed with the agar diffusion test and on two other microorganisms such as Pseudomonas aeruginosa DSM 22644 (PAO1) and Bacillus cereus DSM31 to evaluate the Minimum Inhibitory Concentration (MIC), i.e. the lowest concentration of compound able to inhibit the growth of a microorganism. The method used was the broth microdilution method (CLSI - Clinical and Laboratory Standards Institute). Briefly, the procedure involved the preparation of serial dilutions of the antimicrobial agent (256 to 0.125 mg/1) distributed in a 96-well microtiter plate (microdilution). Each well was then inoculated with the reference microbial strain at the concentration of about […] (0.5 McFarlands). The 96-well microtiter plates were then incubated at 37°C.

S. aureus = test: MIC evaluation, broth microdilution method (CLSI); details: Staphylococcus aureus, 37°C
Description: as §1

[1] = system: Candida humilis UMY12 (UNIMI collection); test: disc diffusion test on yeast; details: MHA with 2% glucose, 5120 µg/mL, preliminary tests
Description: Some preliminary tests were also effected to evaluate the activity against eukaryotic microorganisms such as yeasts.
The disc diffusion method was applied again, using the yeast Candida humilis UMY12 (UNIMI collection).
2% glucose was added to the MHA medium, and the concentration of the suspension amounted to about 3×10^6 CFU/mL. The concentration of the chemical compounds amounted to 5120 µg/mL for both compounds.

[2] = system: Escherichia coli ATCC25922; test: disc diffusion antimicrobial susceptibility test (EUCAST); details: MHA, 1000 to 125 µg/mL, 37°C, 16-20 h, compared with domiphen bromide
Description: The antimicrobial susceptibility tests were effected by the disc diffusion method as indicated by EUCAST (European Committee on Antimicrobial Susceptibility Testing). The plates were prepared with Mueller Hinton Agar (MHA) medium into which microbial suspensions of Escherichia coli ATCC25922 and Staphylococcus aureus ATCC25923 were inoculated at a concentration of about 2×10^8 CFU/mL. Sterile discs were then placed on each plate and subsequently inoculated with successive concentrations of the two chemical compounds analysed (domiphen bromide and para-bromo domiphen bromide), together with a positive control (chloramphenicol) and a negative control (MH broth). The plates were then incubated at 37°C in aerobiosis for 16-20 h. After incubation, any inhibition zone due to the potential antimicrobial activity was measured with a ruler, and the activities of the two molecules were compared. In Figure 6 and Figure 7: • TQ= concentration of compound amounting to 1000 µg/mL 1:2= concentration of compound amounting to 500 µg/mL • 1:4= concentration of compound amounting to 250 µg/mL • 1:8= concentration of compound amounting to 125 µg/mL • CHL= chloramphenicol (antibiotic) • CNEG= negative control (MHB).

[3] = system: Staphylococcus aureus ATCC25923; test: as above; details: MHA, 1000 to 125 µg/mL, 37°C, 16-20 h
Description: The antimicrobial susceptibility tests were effected by the disc diffusion method as indicated by EUCAST (European Committee on Antimicrobial Susceptibility Testing). The plates were prepared with Mueller Hinton Agar (MHA) medium into which microbial suspensions of Escherichia coli ATCC25922 and Staphylococcus aureus ATCC25923 were inoculated at a concentration of about 2×10^8 CFU/mL. Sterile discs were then placed on each plate and subsequently inoculated with successive concentrations of the two chemical compounds analysed (domiphen bromide and para-bromo domiphen bromide), together with a positive control (chloramphenicol) and a negative control (MH broth). The plates were then incubated at 37°C in aerobiosis for 16-20 h. After incubation, any inhibition zone due to the potential antimicrobial activity was measured with a ruler, and the activities of the two molecules were compared. In Figure 8 and Figure 9: • TQ= concentration of compound amounting to 1000 µg/mL • 1:2= concentration of compound amounting to 500 µg/mL • 1:4= concentration of compound amounting to 250 µg/mL • 1:8= concentration of compound amounting to 125 µg/mL • CHL= chloramphenicol (antibiotic) • CNEG= negative control (MHB).

Bacillus cereus DSM31 = test: MIC evaluation, broth microdilution method (CLSI); details: summary statement in words
Description: as §1

[4] = system: Pseudomonas aeruginosa DSM 22644 (PAO1); test: MIC evaluation, broth microdilution method (CLSI); details: summary statement in words
Description: as §1

## CCCCCCCCCCCC[N+](C)(C)CCOc1ccccc1 [domiphen bromide, Domiphen bromide, reference compound]
E. coli
  MIC: 8 mg/L
S. aureus
  MIC: 1 mg/L
[1]
  antimicrobial activity against yeast: almost the same antimicrobial activity

## CCCCCCCCCCCC[N+](C)(C)CCOc1ccc(Br)cc1 [compound of formula (Ia), (dodecyldimethyl-2-p-bromophenoxyethyl)ammonium bromide]
[2]
  antimicrobial activity (inhibition zone) towards E. coli: comparable with that of domiphen bromide
[3]
  antimicrobial activity (inhibition zone) towards S. aureus: exhibits antimicrobial activity
Bacillus cereus DSM31
  activity compared with domiphen against Bacillus cereus: more active than domiphen
E. coli
  MIC: 8 mg/L
[4]
  activity compared with domiphen against Pseudomonas aeruginosa: more active than domiphen
S. aureus
  MIC: 1 mg/L
[1]
  antimicrobial activity against yeast: almost the same antimicrobial activity
